This assay concerns yellow spot. The assay can be described thus: Percent turf area exhibiting yellow spot symptoms (Example 2). The class given is in vivo, Agrostis palustris. Particulars: alone versus in combination. The procedure: In another aspect, a composition herein treats or reduces yellow spot disease. Yellow spot appears in the form of yellow, chlorotic, circular discrete patches ranging from dime/quarter size up to 2-3 inches diameter on bentgrass putting greens, tees, and approaches.
The study was conducted on “A-1” creeping bentgrass maintained as a golf course putting green. Plots were mowed 6 times per week with clippings collected. The study was irrigated to prevent drought stress. Individual plots were 3 ft×6 ft and arranged in a randomized complete block design with 4 replications. Chipco 26GT (4 fl oz/1000 ft^2) was applied to the study for suppression of dollar spot and brown patch on 2 May, 9 June, 29 July, and 20 August. Treatments were applied in water equivalent to 2 gal 1000 ft-2 with a CO2-powered sprayer equipped with a TeeJet AI9508E nozzle at 50 psi. Treatments were initiated on 24 April and applied on 28-day intervals. The study was irrigated with 0.1-0.2 inches of water after all treatments were applied. […] Turfgrass quality was assessed on 24 April, 21 May, 18 June, 16 July, 13 August, and 2 September. NDVI was assessed on 21 May, 18 June, 17 July, 13 August, and 2 September. Root length (3 subsamples per plot) was assessed on 18 September.

Turning to `CCCOC(=O)NCCCN(C)C` [propamocarb], the “Control of yellow spot disease (in words)” value was “not controlled”.

The record behind these values is patent publication US10945438B2, “Methods and compositions for reducing fungal infestation and improving grass quality” (BASF CORPORATION, priority 2015, dated 2021).
